Twelve compounds from ChEMBL document CHEMBL2331398, “Synthesis and growth inhibition activity of fluorinated derivatives of tamoxifen” (2013) can be followed below.

Assay type in all cases: functional
For assay [1], the system named is MCF7. Briefly: Growth inhibition of estrogen-dependent human MCF7 cells.
In assay [2] the test system is MDA-MB-231. Briefly: Growth inhibition of estrogen-independent human MDA-MB-231 cells.
For assay [3], the system named is M21. Briefly: Growth inhibition of human M21 cells.
Assay [4] relates to HT-29. The assay can be described thus: Growth inhibition of human HT-29 cells.

Usually GI50 stands for the concentration that inhibits growth by half. High values mean less potent growth inhibition, low ones more potent growth inhibition. For the compound `OCc1ccc(/C(=C(\F)c2ccccc2)c2ccc(OCCN3CCCCC3)cc2)cc1`, the GI50 is 7.4 µM in assay [1], 12.6 µM in assay [2], 5.9 µM in assay [3] and 6.9 µM in assay [4].

As to `F/C(=C(/c1ccccc1)c1ccc(OCCN2CCCCC2)cc1)c1ccccc1`, the 50% growth inhibitory concentration (GI50) in assay [1] turned out to be 8.8 µM; in assay [2] it was 12.5 µM; in assay [3], 5.6 µM; in assay [4], 7.3 µM.

Regarding `CN(C)CCOc1ccc(/C(=C(/F)c2ccccc2)c2ccccc2)cc1`, the 50% growth inhibitory concentration (GI50) was 10.4 µM in assay [1], 22.2 µM in assay [2], 13.5 µM in assay [3] and 10.5 µM in assay [4].

Turning to `Oc1ccc(/C(=C(\F)c2ccccc2)c2ccc(OCCN3CCCCC3)cc2)cc1`, the GI50 was determined as 8.4 µM in assay [1], 25.8 µM in assay [2], 15.9 µM in assay [3] and 8.9 µM in assay [4].

For the compound `Oc1ccc(C(=C(F)c2ccccc2)c2ccccc2)cc1` (mixture of isomers), the 50% growth inhibitory concentration (GI50) in assay [1] turned out to be 21.3 µM; in assay [2], 46.9 µM; in assay [3], 53 µM; in assay [4] it was 32.8 µM.

Take `F/C(=C(\c1ccccc1)c1ccc(OCCN2CCCCC2)cc1)c1ccccc1`: the GI50 in assay [1] is 6.5 µM; in assay [2], 14.4 µM; in assay [3] it was 5.8 µM; in assay [4], 8.7 µM.

In the case of `CC/C(=C(\c1ccccc1)c1ccc(OCCN(C)C)cc1)c1ccccc1` [TAMOXIFEN], the figures for the GI50 in assay [2], in assay [3] and in assay [4] were 18.8 µM, 11 µM and 9.5 µM, respectively.

Turning to `CN(C)CCOc1ccc(/C(=C(/F)c2ccccc2)c2ccc(O)cc2)cc1`, the GI50 in assay [1] came to 3.6 µM; in assay [2] it was 7.3 µM; in assay [3], 4.4 µM; in assay [4], 8.7 µM.

As to `Oc1ccc(C(=C(F)c2cccc(C(F)(F)F)c2)c2ccccc2)cc1`, the GI50 turned out to be 71.7 µM in assay [1], 105 µM in assay [2], 89.6 µM in assay [3] and 59.8 µM in assay [4].

As for `Oc1ccc(/C(=C(\F)c2ccccc2)c2ccc(OCCN3CCCC3)cc2)cc1`, the 50% growth inhibitory concentration (GI50) in assay [1] stood at 5.6 µM; in assay [2] it was 10.6 µM; in assay [3], 6.8 µM; in assay [4], 8.9 µM.

`O=Cc1ccc(/C(=C(\F)c2ccccc2)c2ccc(OCCN3CCCCC3)cc2)cc1`: the concentration for 50% growth inhibition (GI50) is 5.6 µM in assay [1], 10.6 µM in assay [2], 4.2 µM in assay [3] and 5.9 µM in assay [4].

Regarding `F/C(=C(\c1ccccc1)c1ccc(OCCN2CCCC2)cc1)c1ccccc1`, the GI50 in assay [1] was 41.7 µM; in assay [2], greater than 100 µM; in assay [3] it was 44 µM; in assay [4], 40.3 µM.
